Measured values reported in patent publication US11578079B2, “SUMO inhibitor compounds and uses thereof” (CITY OF HOPE, priority 2018, dated 2023).

Assays:
[1] = target: T1, SUMO (Homo sapiens, UniProt Q9UBT2); assay: SUMO activity (Table I, biological activities); type: biochemical; set-up: key: + (less active); ++ (active); +++ (most active)
T1 sequence (Q9UBT2 1-640): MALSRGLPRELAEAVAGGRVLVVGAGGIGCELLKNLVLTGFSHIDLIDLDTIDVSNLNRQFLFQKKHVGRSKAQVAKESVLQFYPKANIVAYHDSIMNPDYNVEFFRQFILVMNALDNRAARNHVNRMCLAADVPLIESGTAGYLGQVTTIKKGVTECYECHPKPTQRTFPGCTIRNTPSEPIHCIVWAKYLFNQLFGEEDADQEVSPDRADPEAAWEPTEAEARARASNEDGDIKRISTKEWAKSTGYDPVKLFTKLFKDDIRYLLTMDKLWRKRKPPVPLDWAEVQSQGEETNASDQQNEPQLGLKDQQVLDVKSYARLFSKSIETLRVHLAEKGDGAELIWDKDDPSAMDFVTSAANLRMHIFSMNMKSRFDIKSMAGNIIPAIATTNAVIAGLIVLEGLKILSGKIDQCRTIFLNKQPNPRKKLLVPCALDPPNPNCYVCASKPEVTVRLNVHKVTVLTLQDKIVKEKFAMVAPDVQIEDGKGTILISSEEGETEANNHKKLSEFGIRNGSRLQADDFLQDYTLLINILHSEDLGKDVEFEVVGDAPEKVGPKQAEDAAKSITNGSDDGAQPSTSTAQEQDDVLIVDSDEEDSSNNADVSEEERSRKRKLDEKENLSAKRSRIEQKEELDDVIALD
T1 sequence (Q9UBE0 1-346 partner): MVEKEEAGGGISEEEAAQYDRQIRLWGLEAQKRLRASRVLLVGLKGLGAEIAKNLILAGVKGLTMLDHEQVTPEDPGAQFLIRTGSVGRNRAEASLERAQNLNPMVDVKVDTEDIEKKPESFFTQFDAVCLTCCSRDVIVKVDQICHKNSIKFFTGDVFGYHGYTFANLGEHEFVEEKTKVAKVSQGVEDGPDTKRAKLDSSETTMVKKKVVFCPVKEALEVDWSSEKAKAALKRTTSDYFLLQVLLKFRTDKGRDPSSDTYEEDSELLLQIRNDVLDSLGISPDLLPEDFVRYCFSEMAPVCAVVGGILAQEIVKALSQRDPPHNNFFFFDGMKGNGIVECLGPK

[2] = target: T2, Ubiquitin (Homo sapiens, UniProt P22314); assay: Ubiquitin activity (Table I, biological activities); type: biochemical; set-up: key: + (less active); ++ (active); +++ (most active)
T2 sequence (P22314 1-1058): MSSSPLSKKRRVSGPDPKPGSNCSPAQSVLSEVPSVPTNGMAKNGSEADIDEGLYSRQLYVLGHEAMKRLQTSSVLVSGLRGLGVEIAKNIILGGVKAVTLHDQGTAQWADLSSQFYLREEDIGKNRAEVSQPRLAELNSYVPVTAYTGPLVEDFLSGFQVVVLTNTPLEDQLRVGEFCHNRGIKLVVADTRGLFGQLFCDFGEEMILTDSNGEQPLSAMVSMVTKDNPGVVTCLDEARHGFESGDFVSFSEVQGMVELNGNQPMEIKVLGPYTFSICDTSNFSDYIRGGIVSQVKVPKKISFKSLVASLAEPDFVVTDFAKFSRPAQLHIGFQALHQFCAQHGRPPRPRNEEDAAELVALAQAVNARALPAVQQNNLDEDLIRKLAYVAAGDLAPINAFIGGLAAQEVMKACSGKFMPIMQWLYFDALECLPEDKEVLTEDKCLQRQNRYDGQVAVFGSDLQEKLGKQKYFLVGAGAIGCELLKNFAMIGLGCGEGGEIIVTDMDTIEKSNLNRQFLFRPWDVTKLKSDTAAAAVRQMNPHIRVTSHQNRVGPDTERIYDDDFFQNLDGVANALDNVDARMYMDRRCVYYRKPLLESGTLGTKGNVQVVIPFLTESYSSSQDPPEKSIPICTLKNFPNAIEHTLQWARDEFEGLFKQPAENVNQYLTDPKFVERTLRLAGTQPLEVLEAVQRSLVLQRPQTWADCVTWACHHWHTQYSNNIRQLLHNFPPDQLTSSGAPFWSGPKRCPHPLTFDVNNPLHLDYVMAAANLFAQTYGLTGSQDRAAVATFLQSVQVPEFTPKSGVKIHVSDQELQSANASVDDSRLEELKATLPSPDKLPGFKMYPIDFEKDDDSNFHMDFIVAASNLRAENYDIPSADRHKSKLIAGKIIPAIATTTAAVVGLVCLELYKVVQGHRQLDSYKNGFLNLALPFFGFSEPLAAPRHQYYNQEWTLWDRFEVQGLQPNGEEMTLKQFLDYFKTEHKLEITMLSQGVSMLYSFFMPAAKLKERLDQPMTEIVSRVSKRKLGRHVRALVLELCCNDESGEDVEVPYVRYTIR

[3] = system: c-Myc; assay: c-Myc activity (Table I, biological activities); set-up: key: + (less active); ++ (active); +++ (most active)
[4] = target: T3, Nedd8 (Homo sapiens, UniProt Q8TBC4); assay: Nedd8 activity (Table I, biological activities); type: biochemical; set-up: key: + (less active); ++ (active); +++ (most active)
T3 sequence (Q8TBC4 1-463): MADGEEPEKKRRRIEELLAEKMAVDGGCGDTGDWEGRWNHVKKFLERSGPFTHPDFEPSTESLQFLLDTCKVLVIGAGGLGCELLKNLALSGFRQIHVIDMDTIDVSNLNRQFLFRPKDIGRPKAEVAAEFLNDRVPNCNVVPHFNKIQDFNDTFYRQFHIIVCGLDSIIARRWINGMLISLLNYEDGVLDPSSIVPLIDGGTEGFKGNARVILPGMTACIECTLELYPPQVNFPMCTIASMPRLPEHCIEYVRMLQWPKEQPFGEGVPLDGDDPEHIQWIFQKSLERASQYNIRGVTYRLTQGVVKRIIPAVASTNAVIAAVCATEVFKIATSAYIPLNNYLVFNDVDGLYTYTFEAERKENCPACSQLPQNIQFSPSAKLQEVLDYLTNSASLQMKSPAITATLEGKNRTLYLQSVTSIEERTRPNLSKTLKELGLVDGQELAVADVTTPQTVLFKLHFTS
T3 sequence (Q13564 1-534 partner): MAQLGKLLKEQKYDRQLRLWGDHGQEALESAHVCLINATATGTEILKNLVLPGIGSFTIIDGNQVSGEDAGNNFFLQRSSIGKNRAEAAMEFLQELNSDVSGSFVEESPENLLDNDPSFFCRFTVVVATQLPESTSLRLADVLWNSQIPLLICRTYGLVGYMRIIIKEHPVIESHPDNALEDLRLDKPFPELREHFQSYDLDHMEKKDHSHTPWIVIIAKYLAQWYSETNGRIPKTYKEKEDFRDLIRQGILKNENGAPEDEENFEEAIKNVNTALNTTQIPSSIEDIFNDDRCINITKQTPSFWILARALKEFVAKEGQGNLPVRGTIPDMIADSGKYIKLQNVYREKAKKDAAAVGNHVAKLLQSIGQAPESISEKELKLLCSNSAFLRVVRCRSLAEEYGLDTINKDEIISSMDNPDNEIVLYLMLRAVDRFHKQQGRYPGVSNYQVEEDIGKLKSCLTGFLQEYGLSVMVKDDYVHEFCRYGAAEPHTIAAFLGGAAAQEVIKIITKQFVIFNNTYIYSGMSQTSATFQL

[5] = system: cancer stem cell (CSC) populations in patient derived xenograft (PDX) models; assay: Limited dilution assays of cancer stem cell populations in PDX models (FIG. 1); type: cell-based; settings: 1 μM to 10 μM
Description: FIG. 1. Examination of the effect of compounds 582 and 588 to reduce cancer stem cell (CSC) populations in patient derived xenograft (PDX) models using limited dilution assays.

[6] = target: T4, Atg7 (Homo sapiens, UniProt O95352); assay: Atg7 activity (Table I, biological activities); type: biochemical; set-up: key: + (less active); ++ (active); +++ (most active)
T4 sequence (O95352 1-703): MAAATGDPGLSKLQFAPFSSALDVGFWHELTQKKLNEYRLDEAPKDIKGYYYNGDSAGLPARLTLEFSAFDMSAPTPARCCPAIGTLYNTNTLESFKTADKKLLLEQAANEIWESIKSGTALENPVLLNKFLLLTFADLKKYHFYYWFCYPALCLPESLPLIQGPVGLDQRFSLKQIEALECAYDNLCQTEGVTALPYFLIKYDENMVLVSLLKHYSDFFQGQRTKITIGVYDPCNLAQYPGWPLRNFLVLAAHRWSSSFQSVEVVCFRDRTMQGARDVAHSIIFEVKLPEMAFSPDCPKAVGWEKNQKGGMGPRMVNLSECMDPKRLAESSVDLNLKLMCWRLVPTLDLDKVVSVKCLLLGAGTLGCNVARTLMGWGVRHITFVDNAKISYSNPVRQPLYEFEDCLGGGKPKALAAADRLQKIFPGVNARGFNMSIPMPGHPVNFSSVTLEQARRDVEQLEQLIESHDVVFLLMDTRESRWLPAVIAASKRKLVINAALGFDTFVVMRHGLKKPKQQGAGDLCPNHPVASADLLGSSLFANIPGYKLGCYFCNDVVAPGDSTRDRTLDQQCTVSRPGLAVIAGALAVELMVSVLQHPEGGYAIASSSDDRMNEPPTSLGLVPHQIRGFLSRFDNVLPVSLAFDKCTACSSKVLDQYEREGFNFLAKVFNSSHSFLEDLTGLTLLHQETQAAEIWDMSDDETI

SMILES	SUMO [1]	Ubiquitin [2]	Nedd8 [4]	Atg7 [6]	c-Myc [3]	inhibition on PDX cancer-initiating-cell (CIC) frequency [5]
COC(=O)C1=C(C(=O)Nc2ccc(OC)cc2)C2C=CC1(C(Cc1ccccc1)Nc1cccc(CO)c1)O2 (stereo not shown) [Compound 537]	++		++		+	
CCOC(=O)C1=C(C(=O)Nc2c(C)cccc2C)C2C=CC1(C(Nc1ccccc1)c1ccc(CN3CCOCC3)cc1)O2 (stereo not shown) [Compound 582]	++				++	dose-dependent inhibition on PDX cancer-initiating-cell (CIC) frequency, even at 1 μM
CCOC(=O)C1=CC2OC1(C(c1ccccc1)N(C(=O)C(F)(F)F)c1ccccc1)c1ccccc12 (stereo not shown) [Compound 585]	+			+	++	
COC(=O)C1=C(C(=O)Nc2ccc(OCCN(C)C)cc2)C2OC1(C(Cc1ccccc1)Oc1ccccc1)C1OC21 (stereo not shown) [Compound 534]	+	+	++		++	
COC(=O)C1=C(C(=O)NCCN2CCCCC2)C2C=CC1(C(Cc1ccccc1)Nc1ccccc1)O2 (stereo not shown) [Compound 462]	++			++	++	
COC(=O)C1=C(CO)C2C=CC1(C(Cc1ccccc1)Oc1ccccc1)O2 (stereo not shown) [Compound 584]	+			++	++	
CCOC(=O)C1=CC2OC1(C(Nc1ccccc1)c1ccccc1)c1ccccc12 (stereo not shown) [Compound 625]	+				+	

Second part, led by results:

SUMO [1]	Ubiquitin [2]	Nedd8 [4]	Atg7 [6]	SMILES	c-Myc [3]	inhibition on PDX cancer-initiating-cell (CIC) frequency [5]
++	+			COC(=O)C1=C(C(=O)Nc2ccc(CN(C)C)cc2)C2OC1(C(Cc1ccccc1)Oc1ccccc1)C1OC21 (stereo not shown) [Compound 545]	++	
++			+	COC(=O)C1=C(C(=O)NCCN(C)C)C2(C)C=CC1(C(Cc1ccccc1)Nc1ccccc1)O2 (stereo not shown) [Compound 619]	+	
++		++		COC(=O)C1=C(C(=O)NC2CCN(C)CC2)C2OC1(C(Cc1ccccc1)Oc1ccccc1)C1OC21 (stereo not shown) [Compound 541]	++	
+			++	COC(=O)C1=C(CO)C2(C)C=CC1(C(Cc1ccccc1)Oc1ccccc1)O2 (stereo not shown) [Compound 626]		
++			++	COC(=O)C1=C(C(=O)NCCN2CCN(C)CC2)C2C=CC1(C(Cc1ccccc1)Nc1ccccc1)O2 (stereo not shown) [Compound 463]	++	
++				CCOC(=O)C1=C(C(=O)Nc2c(CC)cccc2CC)C2C=CC1(C(Nc1ccccc1)c1ccc(CN3CCOCC3)cc1)O2 (stereo not shown) [Compound 588]	++	only showed inhibition on CIC at high dose 10 μM
+		++		Cc1ccc(S(=O)(=O)C2=CC3(C)C=CC2(C(Cc2ccccc2)Nc2ccccc2)O3)cc1 (stereo not shown) [Compound 531]		
++		++		COC(=O)C1=C(C(N)=O)C2C=CC1(C(Cc1ccccc1)Nc1ccc(F)cc1)O2 (stereo not shown) [Compound 540]	++	
++	+	++		COC(=O)C1=C(C(N)=O)C2C=CC1(C(Cc1ccccc1)Nc1cccc(CO)c1)O2 (stereo not shown) [Compound 536]		
+++	+	++		COC(=O)C1=C(C(=O)NCCN(C)C)C2C=CC1(C(Cc1ccccc1)Nc1cccc(CO)c1)O2 (stereo not shown) [Compound 535]	++	
++				COC(=O)C1=C(C(=O)NC2CCN(C)CC2)C2C=CC1(C(Cc1ccccc1)Nc1cc(F)cc(F)c1)O2 (stereo not shown) [Compound 240]	+	
